Test results reported in patent US8518945B2, “Pyrrolopyrazine kinase inhibitors” (Hoffmann-La Roche Inc., priority 2010, dated 2013).

What follows are compounds tested against T1, h-jak3(810-1124) (JAK3: Recombinant human kinase domain) (Homo sapiens, UniProt P52333) (assay: Determination of IC50 of Janus Kinase (JAK) inhibition: JAK3 radioactive end-point 33P-ATP kinase assay). Settings: no additive; ATP 1.5 uM, peptide 50 uM, 20 minutes, room temperature; read-out: Ic50 h-jak3(810-1124)-sf9-c: no additive.
T1 construct: jak3(810- 1124)-sf9-c; made in house; host or cells: Sf9
T1 sequence (P52333 810-1124): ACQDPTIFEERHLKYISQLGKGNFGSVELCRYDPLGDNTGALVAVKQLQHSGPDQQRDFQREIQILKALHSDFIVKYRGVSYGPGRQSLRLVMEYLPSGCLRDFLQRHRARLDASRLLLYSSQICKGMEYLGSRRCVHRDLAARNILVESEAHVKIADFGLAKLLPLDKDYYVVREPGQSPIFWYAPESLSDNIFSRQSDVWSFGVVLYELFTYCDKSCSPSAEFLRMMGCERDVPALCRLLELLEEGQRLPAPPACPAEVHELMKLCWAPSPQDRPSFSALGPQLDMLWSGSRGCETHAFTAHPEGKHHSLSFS
Format: biochemical

IC50 [nM] | SMILES
1.67 | N#CC1CCN(C(=O)[C@H](NC(=O)c2c[nH]c3ncc(-c4cn(C5CCCC5)cn4)nc23)C2CC2)CC1 [Example I-121, 2-(1-Cyclopentyl-1H-imidazol-4-yl)-5H-pyrrolo[2,3-b]pyrazine-7-carboxylic acid [(R)-2-(4-cyano-piperidin-1-yl)-1-cyclopropyl-2-oxo-ethyl]-amide]
1.13 | CCn1cc(-c2cnc3[nH]cc(C(=O)N[C@H](C(=O)N4CCC(C#N)CC4)C4(C(F)(F)F)CC4)c3n2)cn1 [Example I-74, 2-(1-Ethyl-1H-pyrazol-4-yl)-5H-pyrrolo[2,3-b]pyrazine-7-carboxylic acid [(S)-2-(4-cyano-piperidin-1-yl)-2-oxo-1-(1-trifluoromethyl-cyclopropyl)-ethyl]-amide]
0.38 | CCn1cc(-c2cnc3[nH]cc(C(=O)N[C@@H](C(=O)N4CCC(O)(C(F)(F)F)CC4)C4CC4)c3n2)cn1 [Example I-146, 2-(1-Ethyl-1H-pyrazol-4-yl)-5H-pyrrolo[2,3-b]pyrazine-7-carboxylic acid [(R)-1-cyclopropyl-2-(4-hydroxy-4-trifluoromethyl-piperidin-1-yl)-2-oxo-ethyl]-amide]
0.69 | N#CC1CN(C(=O)[C@H](NC(=O)c2c[nH]c3ncc(-c4cc5nccc(Cl)c5s4)nc23)C2CC2)C1 [Example I-96, 2-(7-Chloro-thieno[3,2-b]pyridin-2-yl)-5H-pyrrolo[2,3-b]pyrazine-7-carboxylic acid [(R)-2-(3-cyano-azetidin-1-yl)-1-cyclopropyl-2-oxo-ethyl]-amide]
≤ 0.32 | CC(C)(C)[C@@H](NC(=O)c1c[nH]c2ncc(-c3cnn(CC(F)(F)F)c3)nc12)C(=O)N1CCC(C#N)CC1 [Example I-79, 2-[1-(2,2,2-Trifluoro-ethyl)-1H-pyrazol-4-yl]-5H-pyrrolo[2,3-b]pyrazine-7-carboxylic acid [(R)-1-(4-cyano-piperidine-1-carbonyl)-2,2-dimethyl-propyl]-amide]
0.38 | N#CC1CN(C(=O)[C@H](NC(=O)c2c[nH]c3ncc(-c4ccc(C(F)(F)F)cc4)nc23)C2CC2)C1 [Example I-160, 2-(4-Trifluoromethyl-phenyl)-5H-pyrrolo[2,3-b]pyrazine-7-carboxylic acid [(R)-2-(3-cyano-azetidin-1-yl)-1-cyclopropyl-2-oxo-ethyl]-amide]
≤ 0.32 | CCn1cc(-c2cnc3[nH]cc(C(=O)N[C@@H](C(=O)N4CCC(F)(F)C4)C4CC4)c3n2)cn1 [Example I-139, 2-(1-Ethyl-1H-pyrazol-4-yl)-5H-pyrrolo[2,3-b]pyrazine-7-carboxylic acid [(R)-1-cyclopropyl-2-(3,3-difluoro-pyrrolidin-1-yl)-2-oxo-ethyl]-amide]
1.23 | O=C(N[C@@H](C(=O)N1CCS(=O)(=O)CC1)C1CC1)c1c[nH]c2ncc(C3CC3)nc12 [Example I-88, 2-Cyclopropyl-5H-pyrrolo[2,3-b]pyrazine-7-carboxylic acid [(R)-1-cyclopropyl-2-(1,1-dioxo-1λ^6-thiomorpholin-4-yl)-2-oxo-ethyl]-amide]
≤ 0.32 | CC(C)(C)[C@@H](NC(=O)c1c[nH]c2ncc(-c3cnn(C4CC4)c3)nc12)C(=O)N1CCC(C#N)CC1 [Example I-78, 2-(1-Cyclopropyl-1H-pyrazol-4-yl)-5H-pyrrolo[2,3-b]pyrazine-7-carboxylic acid [(R)-1-(4-cyano-piperidine-1-carbonyl)-2,2-dimethyl-propyl]-amide]
6.05 | CC(C)(C)[C@@H](NC(=O)c1c[nH]c2ncc(-c3cc(C(F)(F)F)ccn3)nc12)C(=O)N1CCC(C#N)CC1 [Example I-118, 2-(4-Trifluoromethyl-pyridin-2-yl)-5H-pyrrolo[2,3-b]pyrazine-7-carboxylic acid [(R)-1-(4-cyano-piperidine-1-carbonyl)-2,2-dimethyl-propyl]-amide]
4.02 | O=C(N[C@@H](C(=O)N1C[C@@H]2[C@@H](CO)[C@@H]2C1)C1CC1)c1c[nH]c2ncc(C3CC3)nc12 [Example I-86, 2-Cyclopropyl-5H-pyrrolo[2,3-b]pyrazine-7-carboxylic acid [(R)-1-cyclopropyl-2-((1S,5R,6R)-6-hydroxymethyl-3-aza-bicyclo[3.1.0]hex-3-yl)-2-oxo-ethyl]-amide]
0.47 | Cn1cc(-c2cnc3[nH]cc(C(=O)N[C@@H](C(=O)N4CC(C)(C#N)C4)C4CC4)c3n2)cn1 [Example I-142, 2-(1-Methyl-1H-pyrazol-4-yl)-5H-pyrrolo[2,3-b]pyrazine-7-carboxylic acid [(R)-2-(3-cyano-3-methyl-azetidin-1-yl)-1-cyclopropyl-2-oxo-ethyl]-amide]
0.49 | CC(C)(C)[C@@H](NC(=O)c1c[nH]c2ncc(C3CC3)nc12)C(=O)N1CCC(C(F)(F)F)CC1 [Example I-58, 2-Cyclopropyl-5H-pyrrolo[2,3-b]pyrazine-7-carboxylic acid [(R)-2,2-dimethyl-1-(4-trifluoromethyl-piperidine-1-carbonyl)-propyl]-amide]
≤ 0.32 | CC(C)C[C@@H](NC(=O)c1c[nH]c2ncc(-c3cnn(C)c3)nc12)C(=O)N1CC(C#N)C1 [Example I-69, 2-(1-Methyl-1H-pyrazol-4-yl)-5H-pyrrolo[2,3-b]pyrazine-7-carboxylic acid [(R)-1-(3-cyano-azetidine-1-carbonyl)-3-methyl-butyl]-amide]
3.91 | N#CC1CN(C(=O)[C@H](NC(=O)c2c[nH]c3ncc(-c4cc5nccc(N6CCCC6)c5s4)nc23)C2CC2)C1 [Example I-97, 2-(7-Pyrrolidin-1-yl-thieno[3,2-b]pyridin-2-yl)-5H-pyrrolo[2,3-b]pyrazine-7-carboxylic acid [(R)-2-(3-cyano-azetidin-1-yl)-1-cyclopropyl-2-oxo-ethyl]-amide]
9.53 | C[C@@H](NC(=O)c1c[nH]c2ncc(C3CC3)nc12)C(=O)N1CC[C@@H](F)C1 [Example I-23, 2-Cyclopropyl-5H-pyrrolo[2,3-b]pyrazine-7-carboxylic acid [(R)-2-((R)-3-fluoro-pyrrolidin-1-yl)-1-methyl-2-oxo-ethyl]-amide]

The remaining lines, values behind:

SMILES | IC50 [nM]
CC[C@H](C)[C@@H](NC(=O)c1c[nH]c2ncc(C3CC3)nc12)C(=O)N1CCC(C#N)CC1 [Example I-124, 2-Cyclopropyl-5H-pyrrolo[2,3-b]pyrazine-7-carboxylic acid [(1R,2S)-1-(4-cyano-piperidine-1-carbonyl)-2-methyl-butyl]-amide] | 1.37
Cc1nc(-c2cnc3[nH]cc(C(=O)N[C@@H](C(=O)N4CC(C#N)C4)C(C)(C)C)c3n2)cn1-c1cc(F)cc(F)c1 [Example I-157, 2-[1-(3,5-Difluoro-phenyl)-2-methyl-1H-imidazol-4-yl]-5H-pyrrolo[2,3-b]pyrazine-7-carboxylic acid [(R)-1-(3-cyano-azetidine-1-carbonyl)-2,2-dimethyl-propyl]-amide] | 3.28
COC1CCN(C(=O)[C@@H](C)NC(=O)c2c[nH]c3ncc(C4CC4)nc23)C1 (stereo partly drawn) [Example I-9, 2-Cyclopropyl-5H-pyrrolo[2,3-b]pyrazine-7-carboxylic acid [(R)-2-(3-methoxy-pyrrolidin-1-yl)-1-methyl-2-oxo-ethyl]-amide] | 52.9
CNC(=O)c1ccnc(-c2cnc3[nH]cc(C(=O)N[C@H](C)C(=O)N4CC(C#N)C4)c3n2)c1 [Example I-155, 2-(4-Methylcarbamoyl-pyridin-2-yl)-5H-pyrrolo[2,3-b]pyrazine-7-carboxylic acid [(R)-2-(3-cyano-azetidin-1-yl)-1-methyl-2-oxo-ethyl]-amide] | 10.5
C[C@@H](NC(=O)c1c[nH]c2ncc(-c3cccc(N4CCC(C)(C)C4)c3)nc12)C(=O)N1CC(C#N)C1 [Example I-123, 2-[3-(3,3-Dimethyl-pyrrolidin-1-yl)-phenyl]-5H-pyrrolo[2,3-b]pyrazine-7-carboxylic acid [(R)-2-(3-cyano-azetidin-1-yl)-1-methyl-2-oxo-ethyl]-amide] | 0.62
C[C@@H](NC(=O)c1c[nH]c2ncc(-c3cc4nccc(OCC(F)(F)F)c4s3)nc12)C(=O)N1CC(C#N)C1 [Example I-102, 2-[7-(2,2,2-Trifluoro-ethoxy)-thieno[3,2-b]pyridin-2-yl]-5H-pyrrolo[2,3-b]pyrazine-7-carboxylic acid [(R)-2-(3-cyano-azetidin-1-yl)-1-methyl-2-oxo-ethyl]-amide] | 43.1
CC(C)[C@@H](NC(=O)c1c[nH]c2ncc(C3CC3)nc12)C(=O)N1CCOCC1 [Example I-8, 2-Cyclopropyl-5H-pyrrolo[2,3-b]pyrazine-7-carboxylic acid [(R)-2-methyl-1-(morpholine-4-carbonyl)-propyl]-amide] | 12.3
C[C@@H](NC(=O)c1c[nH]c2ncc(C3CC3)nc12)C(=O)N1CC[C@H](F)C1 [Example I-22, 2-Cyclopropyl-5H-pyrrolo[2,3-b]pyrazine-7-carboxylic acid [(R)-2-((S)-3-fluoro-pyrrolidin-1-yl)-1-methyl-2-oxo-ethyl]-amide] | 5.34
CC1CCCN1C(=O)[C@@H](C)NC(=O)c1c[nH]c2ncc(C3CC3)nc12 (stereo partly drawn) [Example I-16, 2-Cyclopropyl-5H-pyrrolo[2,3-b]pyrazine-7-carboxylic acid [(R)-1-methyl-2-(2-methyl-pyrrolidin-1-yl)-2-oxo-ethyl]-amide] | 72.5
CC(C)[C@@H](NC(=O)c1c[nH]c2ncc(Oc3ccccc3)nc12)C(=O)N1CCCC1 [Example I-18, 2-Phenoxy-5H-pyrrolo[2,3-b]pyrazine-7-carboxylic acid [(R)-2-methyl-1-(pyrrolidine-1-carbonyl)-propyl]-amide] | 443
COc1ccnc(-c2cnc3[nH]cc(C(=O)N[C@@H](C(=O)N4CCC(C#N)CC4)C(C)(C)C)c3n2)c1 [Example I-127, 2-(4-Methoxy-pyridin-2-yl)-5H-pyrrolo[2,3-b]pyrazine-7-carboxylic acid [(R)-1-(4-cyano-piperidine-1-carbonyl)-2,2-dimethyl-propyl]-amide] | 3.56
